Source: US20260315487A1, “IKK-ALPHA INHIBITORS” (Cancer Research Technology Limited, priority 2023, published 2026)

Assays:
IKKβ = target: T1, IKKβ (Homo sapiens, UniProt O14920); experiment: in-house DELFIA kinase assay, IKKβ; type: biochemical
T1 sequence (O14920 1-756): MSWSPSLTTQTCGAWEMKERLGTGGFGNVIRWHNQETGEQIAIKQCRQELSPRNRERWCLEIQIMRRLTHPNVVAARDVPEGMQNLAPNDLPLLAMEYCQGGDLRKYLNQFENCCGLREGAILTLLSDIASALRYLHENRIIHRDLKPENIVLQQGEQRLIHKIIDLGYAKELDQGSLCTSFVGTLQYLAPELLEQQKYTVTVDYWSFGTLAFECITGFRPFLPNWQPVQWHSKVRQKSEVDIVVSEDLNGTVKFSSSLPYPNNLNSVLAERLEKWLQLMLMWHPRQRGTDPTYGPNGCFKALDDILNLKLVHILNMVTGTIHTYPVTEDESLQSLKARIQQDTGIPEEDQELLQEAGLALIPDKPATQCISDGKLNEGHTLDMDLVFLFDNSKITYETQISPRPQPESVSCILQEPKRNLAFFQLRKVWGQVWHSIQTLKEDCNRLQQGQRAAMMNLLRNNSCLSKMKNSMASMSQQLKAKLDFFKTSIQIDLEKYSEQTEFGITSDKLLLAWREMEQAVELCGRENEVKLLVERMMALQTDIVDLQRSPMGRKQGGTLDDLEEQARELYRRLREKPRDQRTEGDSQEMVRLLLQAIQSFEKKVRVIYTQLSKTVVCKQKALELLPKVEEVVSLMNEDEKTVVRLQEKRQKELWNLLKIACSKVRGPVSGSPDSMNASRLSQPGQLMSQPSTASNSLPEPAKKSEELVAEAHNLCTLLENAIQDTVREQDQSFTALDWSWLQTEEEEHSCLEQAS

MKK7 P = target: T2, MKK7 P (Homo sapiens, UniProt O14733); experiment: kinome profiling at 1 μM, MKK7; type: biochemical
T2 sequence (O14733 1-419): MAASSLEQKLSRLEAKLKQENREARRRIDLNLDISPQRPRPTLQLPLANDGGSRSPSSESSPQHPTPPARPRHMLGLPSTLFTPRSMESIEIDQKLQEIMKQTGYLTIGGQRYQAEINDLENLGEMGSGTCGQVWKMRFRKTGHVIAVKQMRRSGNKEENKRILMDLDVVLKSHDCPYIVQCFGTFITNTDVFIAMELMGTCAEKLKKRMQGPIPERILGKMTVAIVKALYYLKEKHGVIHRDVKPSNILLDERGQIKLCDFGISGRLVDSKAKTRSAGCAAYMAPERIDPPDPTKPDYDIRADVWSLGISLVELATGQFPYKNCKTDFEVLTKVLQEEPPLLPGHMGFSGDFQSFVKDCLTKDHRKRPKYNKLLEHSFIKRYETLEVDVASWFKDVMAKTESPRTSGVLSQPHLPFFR
Text: We profiled three compounds from the series across the kinome (FIG. 11). […] To identify the structural drivers for CDK inhibition, we obtained X-ray crystal structures of 5 y and 6 g SU1336 and SU1349 with CDK-2 (FIG. 12A) to potentially identify possible routes towards introducing selectivity for IKKα over the CDK enzymes as well as IKKβ. […] All three derivatives form complexes with CDK2 with the pyrrolo[2,3 -b]pyridine H-bonding to GK+3 (Leu 83 ) and the aminoindazole projected towards the G-loop (FIG. 12A), forming H-bonds with Glu 51 and Lys 33 at the back of the pocket. The adoption of the 4 SU1253 -type orientation, rather than the flipped pose observed in IKKα, is probably facilitated by Tr-stacking between the aminoindazole and the GK residue, which in the CDKs is Phe, rather than Met. […] For 6 g SU1349, the hydrophobic pendant benzyloxy group points out into solvent, but can form face-to-edge Tr-Tr interactions with Phe 82 and His 84 from the hinge. Exchanging the hydrophobic pendant benzyloxy group for the morpholinoethyl-containing substituent in 5 y SU1336 removes any direct interaction with these hinge residues, preferring to sit in a more solvent-exposed position, as befits a basic side chain that will be protonated at physiological pH (FIG. 12B).

[1] = in vivo murine PK in CD1 mice; parameters: species or system mouse; details: 10 mg/kg, mean
Procedure: […] Prior formulation/solubility assessment was performed in routine excipients e.g., DMSO: cyclodextrin or HMPC/Tween 80 . Intravenous time points were taken at 5 min, 15 min, 30 min, 1, 2, 4, 8, and 24 hours and intraperitoneal time points were taken at 15 min, 30 min, 1, 2, 4, 6, 8, and 24 hours. Blood samples were prepared by protein precipitation with methanol or acetonitrile containing internal standard and then measured quantitative bioanalysis by LC-MS/MS.

IKKβ inhibition, in words (IKKβ)	Ki (IKKβ)	inhibition at 1 µM (MKK7 P; read-out: % inhibition of MKK7)	Cmax ([1]; I.P.)	F ([1]; I.P.)	Terminal t1/2 ([1]; I.P.)	Tmax ([1]; I.P.)	Clearance ([1]; I.V.)	Terminal t1/2 ([1]; I.V.)	Vss ([1]; I.V.)	SMILES	off-target inhibition of MKK7, in words (MKK7 P; 1 μM, compared with 5r SU1261)
lowest activity against IKKβ	680 nM	> 80%								Nc1n[nH]c2ccc(-c3ccnc4[nH]c(-c5cccc(OCc6ccccc6)c5)cc34)cc12 [5r SU1261, 5-(2-(3-(benzyloxy)phenyl)-1 H-pyrrolo[2,3-b]pyridin-4-yl)-1 H-indazol-3-amine]	
	3350 nM		199 ng/mL	9.3%	3.02 h	0.44 h	16.7 mL/min/kg	4.18 h	0.39 L/kg	Nc1n[nH]c2ccc(-c3ccnc4[nH]c(-c5ccnc(OCc6ccccc6)c5)cc34)cc12 [6g SU1349, 5-(2-(2-(Benzyloxy)pyridin-4-yl)-1 H-pyrrolo[2,3-b]pyridin-4-yl)-1 H-indazol-3-amine]	significantly reduced off-target inhibition
